Test results reported in ChEMBL document CHEMBL4152208, “Synthesis and structure-activity relationships of quinolinone and quinoline-based P2X7 receptor antagonists and their anti-sphere formation activities in glioblastoma cells” (Eur J Med Chem, 2018).
The source made the active and inactive calls. The calls are words filed in the database; no cut-off is given here.

What was measured:
Format in all cases: cell-based
[1] = biological target: T1, P2X purinoceptor 7 (Homo sapiens) (UniProt Q99572); experiment: Antagonist activity at human P2X7 receptor expressed in HEK293 cells assessed as inhibition of BzATP-induced EtBr uptake at 10 uM after 2 hrs by fluorescence assay relative to control
T1 sequence (whole entry): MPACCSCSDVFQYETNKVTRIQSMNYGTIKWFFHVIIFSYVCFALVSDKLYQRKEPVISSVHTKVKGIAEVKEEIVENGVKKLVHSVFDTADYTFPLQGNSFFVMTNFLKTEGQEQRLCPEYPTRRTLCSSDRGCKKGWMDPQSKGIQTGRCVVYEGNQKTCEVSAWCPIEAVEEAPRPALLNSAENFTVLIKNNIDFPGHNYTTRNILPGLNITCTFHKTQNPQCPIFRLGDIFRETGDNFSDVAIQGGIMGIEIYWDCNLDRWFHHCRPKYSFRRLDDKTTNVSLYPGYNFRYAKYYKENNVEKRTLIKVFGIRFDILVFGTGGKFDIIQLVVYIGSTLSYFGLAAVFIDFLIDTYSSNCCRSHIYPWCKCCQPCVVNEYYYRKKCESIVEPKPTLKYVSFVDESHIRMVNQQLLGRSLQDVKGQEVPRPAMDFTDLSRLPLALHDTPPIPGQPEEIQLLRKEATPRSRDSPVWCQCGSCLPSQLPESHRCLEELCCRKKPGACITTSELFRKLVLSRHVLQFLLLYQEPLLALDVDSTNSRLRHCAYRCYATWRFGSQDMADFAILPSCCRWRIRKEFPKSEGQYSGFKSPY

[2] = biological target: T1, P2X purinoceptor 7 (Homo sapiens); experiment: Antagonist activity at human P2X7 receptor expressed in HEK293 cells assessed as inhibition of BzATP-induced EtBr uptake at 1 uM after 2 hrs by fluorescence assay relative to control
P2X purinoceptor 7 [3] = biological target: T2, P2X purinoceptor 7 (Homo sapiens, UniProt Q99572); experiment: Antagonist activity at human P2X7 receptor expressed in HEK293 cells assessed as inhibition of BzATP-induced EtBr uptake after 2 hrs by fluorescence assay relative to control
T2 sequence (Q99572 whole entry): T1 sequence (whole entry)

[4] = biological target: T1, P2X purinoceptor 7 (Homo sapiens); experiment: Antagonist activity at P2X7 in LPS/IFN gamma differentiated human THP-1 cells assessed as inhibition of BzATP-induced IL-1beta release at 10 uM preincubated for 30 mins followed by BzATP stimulation for 30 mins by ELISA
[5] = Cytotoxicity against HEK293 cells expressing human P2X7 receptor assessed as cell survival at 10 uM by MTT assay relative to control; details: read-out: Survival
P2X purinoceptor 7 [6] = biological target: T2, P2X purinoceptor 7; experiment: Antagonist activity at P2X7 in LPS/IFN gamma differentiated human THP-1 cells assessed as inhibition of BzATP-induced IL-1beta release preincubated for 30 mins followed by BzATP stimulation for 30 mins by ELISA

SMILES	inhibition [1]	inhibition [2]	other results
COc1ccc(Cn2c(=O)c(C(=O)NCCCc3ccccc3)cc3c(NC(=O)Cc4ccccc4)cccc32)cc1	inactive		
COC(=O)c1cc2c(NC(=O)C34CC5CC(CC(C5)C3)C4)cccc2n(Cc2ccc(Br)cc2)c1=O	80%	65%	IC50 (P2X purinoceptor 7 [3]): 810 nM
CN([C@@H](Cc1ccc(OS(=O)(=O)c2cccc3cnccc23)cc1)C(=O)N1CCN(c2ccccc2)CC1)S(=O)(=O)c1cccc2cnccc12		79%	inhibition [4]: 96%; viability at 10 µM [5]: 93%
COc1ccc(Cn2c(=O)c(C(=O)NCCc3ccc(C)cc3)cc3c(NC(=O)CCC4CCCC4)cccc32)cc1	inactive		
CCCC(=O)Nc1cccc2c1cc(C(=O)NCCc1ccc(OC)cc1)c(=O)n2Cc1ccc(OC)cc1	inactive		
COc1ccc(Cn2c(=O)c(C(=O)O)cc3c(N)cccc32)cc1	inactive		
COc1ccc(CCNC(=O)c2cc3c(NC(=O)CCc4ccccc4)cccc3n(Cc3ccc(OC)cc3)c2=O)cc1	7%		
COC(=O)c1cc2c(NC(=O)C34CC5CC(CC(C5)C3)C4)cccc2n(Cc2ccc(OC(F)(F)F)cc2)c1=O	68%	48%	
O=C(CC12CC3CC(CC(C3)C1)C2)Nc1cccc2nc(-c3ccccc3)ccc12	86%	78%	IC50 (P2X purinoceptor 7 [3]): 447 nM; viability at 10 µM [5]: 98%; IC50 (P2X purinoceptor 7 [6]): 434 nM
COc1ccc(Cn2c(=O)c(C(=O)NCCc3ccc(C)cc3)cc3c(N)cccc32)cc1	4%		
COc1ccc(Cn2c(=O)c(C(=O)NCCc3ccc(C)cc3)cc3c(NC(=O)COc4cccc(Cl)c4)cccc32)cc1	inactive		
O=C(CC1CCCCC1)Nc1cccc2nc(Cl)ccc12	95%	90%	IC50 (P2X purinoceptor 7 [3]): 385 nM; viability at 10 µM [5]: 92%; IC50 (P2X purinoceptor 7 [6]): 335 nM
COC(=O)c1cc2c(NC(=O)C34CC5CC(CC(C5)C3)C4)cccc2n(Cc2ccc(C#N)cc2)c1=O	inactive		
COc1ccc(Cn2c(=O)c(C(=O)NCCc3ccc4c(c3)OCO4)cc3c(N)cccc32)cc1	inactive		
COc1ccc(Cn2c(=O)c(C(=O)NCCc3ccccc3)cc3c(NC(=O)CCc4ccccc4)cccc32)cc1	inactive		
O=C(Nc1cccc2nc(Cl)ccc12)C12CC3CC(CC(C3)C1)C2	51%	11%	
COc1ccc(Cn2c(=O)c(C(=O)NCCc3ccccc3)cc3c(N)cccc32)cc1	inactive		
CCc1ccc(CCNC(=O)c2cc3c(NC(=O)COc4ccc(Cl)cc4)cccc3n(Cc3ccc(OC)cc3)c2=O)cc1	inactive		
COC(=O)c1cc2c(NC(=O)CC34CC5CC(CC(C5)C3)C4)cccc2nc1Cl	43%	27%	
COc1ccc(Cn2c(=O)c(C(=O)NCCc3ccc(Cl)cc3)cc3c(N)cccc32)cc1	inactive		

SMILES	inhibition [1]	inhibition [2]	other results
COc1ccc(Cn2c(=O)c(C(=O)NCCCc3ccccc3)cc3c(N)cccc32)cc1	inactive		
O=C(CC12CC3CC(CC(C3)C1)C2)Nc1cccc2nc(-c3cccc(O)c3)ccc12	66%	36%	
COC(=O)c1cc2c(NC(=O)C34CC5CC(CC(C5)C3)C4)cccc2n(Cc2ccc(C)cc2)c1=O	45%	30%	
COC(=O)c1cc2c(NC(=O)CCc3ccccc3)cccc2n(Cc2ccc(OC)cc2)c1=O	56%	36%	
COc1ccc(Cn2c(=O)ccc3c(NC(=O)C45CC6CC(CC(C6)C4)C5)cccc32)cc1	43%	29%	
COC(=O)c1cc2c(NC(=O)CC3CCCCC3)cccc2n(Cc2ccc(OC)cc2)c1=O	86%	63%	IC50 (P2X purinoceptor 7 [3]): 875 nM
COc1ccc(CC(=O)Nc2cccc3c2cc(C(=O)NCCc2ccc(C)cc2)c(=O)n3Cc2ccc(OC)cc2)cc1	inactive		
COc1ccc(Cn2c(=O)c(C(=O)NCCCc3ccccc3)cc3c(NC(=O)CCc4ccccc4)cccc32)cc1	inactive		
COC(=O)c1cc2c(NC(=O)C34CC5CC(CC(C5)C3)C4)cccc2nc1Cl	21%	inactive	
COc1ccc(Cn2c(=O)c(C(=O)NCCc3ccc(Cl)cc3)cc3c(NC(=O)Cc4ccccc4)cccc32)cc1	inactive		
COC(=O)c1cc2c(NC(=O)C3CCCCC3)cccc2n(Cc2ccc(OC)cc2)c1=O	88%	67%	IC50 (P2X purinoceptor 7 [3]): 810 nM
COc1ccc(Cn2c(=O)c(C(=O)NCCCc3ccccc3)cc3c(NC(=O)Cc4ccc(Cl)cc4)cccc32)cc1	inactive		
O=C(CC12CC3CC(CC(C3)C1)C2)Nc1cccc2nc(-c3ccccc3O)ccc12	69%	41%	
COc1ccc(Cn2c(=O)c(C(=O)NCCc3ccc(C)cc3)cc3c(NC(=O)COc4ccc(Cl)cc4)cccc32)cc1	inactive		
COc1ccc(Cn2c(=O)c(C(=O)NCCc3ccc4c(c3)OCO4)cc3c(NC(=O)Cc4ccc(Cl)cc4)cccc32)cc1	inactive		
COC(=O)c1cc2c(NC(=O)C34CC5CC(CC(C5)C3)C4)cccc2n(Cc2cccc(OC)c2)c1=O	55%	35%	
CCCC(=O)Nc1cccc2c1cc(C(=O)NCCc1ccccc1)c(=O)n2Cc1ccc(OC)cc1	inactive		
O=C(CC12CC3CC(CC(C3)C1)C2)Nc1cccc2nc(-c3ccc([N+](=O)[O-])cc3)ccc12	94%	79%	IC50 (P2X purinoceptor 7 [3]): 73 nM; viability at 10 µM [5]: 93%; IC50 (P2X purinoceptor 7 [6]): 113 nM
COc1ccc(Cn2c(=O)c(C(=O)N(C)C)cc3c(NC(=O)C45CC6CC(CC(C6)C4)C5)cccc32)cc1	54%	14%	
COc1ccc(CCNC(=O)c2cc3c(NC(=O)COc4ccc(Cl)cc4)cccc3n(Cc3ccc(OC)cc3)c2=O)cc1	inactive		

SMILES	inhibition [1]	inhibition [2]	other results
COc1ccc(Cn2c(=O)c(C(=O)NCCc3ccc(O)c(OC)c3)cc3c(N)cccc32)cc1	5%		
COc1ccc(Cn2c(=O)c(C(=O)OC(C)C)cc3c(NC(=O)C45CC6CC(CC(C6)C4)C5)cccc32)cc1	77%	47%	
CCc1ccc(CCNC(=O)c2cc3c(N)cccc3n(Cc3ccc(OC)cc3)c2=O)cc1	inactive		
COC(=O)c1cc2c(NC(=O)CCC3CCCCC3)cccc2n(Cc2ccc(OC)cc2)c1=O	57%	20%	
COC(=O)c1cc2c(NC(=O)C34CC5CC(CC(C5)C3)C4)cccc2n(Cc2ccc(Cl)cc2)c1=O	88%	78%	IC50 (P2X purinoceptor 7 [3]): 723 nM
CNC(=O)c1cc2c(NC(=O)C34CC5CC(CC(C5)C3)C4)cccc2n(Cc2ccc(OC)cc2)c1=O	42%	6%	
COC(=O)c1cc2c(NC(=O)Cc3ccccc3)cccc2n(Cc2ccc(OC)cc2)c1=O	43%	24%	
COc1ccc(Cn2c(=O)c(C(=O)NCCc3ccc(C)cc3)cc3c(NC(=O)CCc4ccccc4)cccc32)cc1	inactive		
COC(=O)c1cc2c(NC(=O)CCC3CCCC3)cccc2n(Cc2ccc(OC)cc2)c1=O	45%	15%	
O=C(CC12CC3CC(CC(C3)C1)C2)Nc1cccc2nc(-c3ccc(Cl)cc3)ccc12	90%	89%	IC50 (P2X purinoceptor 7 [3]): 123 nM; viability at 10 µM [5]: 98%; IC50 (P2X purinoceptor 7 [6]): 178 nM
COc1ccc(Cn2c(=O)c(C(=O)NCCc3ccc(Cl)cc3)cc3c(NC(=O)COc4cccc(Cl)c4)cccc32)cc1	inactive		
COC(=O)c1cc2c(NC(=O)C34CC5CC(CC(C5)C3)C4)cccc2n(Cc2ccccc2)c1=O	inactive		
CCc1ccc(Cn2c(=O)c(C(=O)OC)cc3c(NC(=O)C45CC6CC(CC(C6)C4)C5)cccc32)cc1	38%	28%	
COC(=O)c1cc2c(N)cccc2n(Cc2ccc(OC)cc2)c1=O	inactive		
COc1ccc(Cn2c(=O)c(C(=O)O)cc3c(NC(=O)C45CC6CC(CC(C6)C4)C5)cccc32)cc1	41%	2%	
COc1ccc(CC(=O)Nc2cccc3c2cc(C(=O)NCCc2ccccc2)c(=O)n3Cc2ccc(OC)cc2)cc1	8%		
COc1ccc(Cn2c(=O)c(C(=O)NCCc3ccc(C)cc3)cc3c(NC(=O)Cc4ccccc4)cccc32)cc1	13%		
COC(=O)c1cc2c(NC(=O)CC34CC5CC(CC(C5)C3)C4)cccc2n(Cc2ccc(OC)cc2)c1=O	76%	65%	IC50 (P2X purinoceptor 7 [3]): 861 nM
COC(=O)c1cc2c(NC(=O)c3ccccc3)cccc2n(Cc2ccc(OC)cc2)c1=O	inactive		
